For one test, the target named is CDK4/Cyclin D3 (Homo sapiens, UniProt P11802+P30281). The test is described as follows: (§1) Kinase Assay: In vitro enzymatic activity of the CDK isoforms CDK2/CycA2, CDK4/CycD3 and CDK6/cycD3 were measured using Mobility Shift Assay that monitors phosphorylation ratio of FAM labelled peptide (Peptide 18 for CDK2/CycA2, Peptide 8 for CDK4/CycD3 and CDK6/cycD3). CDK2/CycA2 and CDK6/cycD3 were assayed under buffer conditions in the presence of 50 mM HEPES (pH 7.5), 10 mM MgCl2, 0.0015% Brij-35, and 2 mM dithiothreitol, CDK4/CycD3 with buffer condition of 20 mM HEPES (pH 7.5), 10 mM MgCl2, 0.01% Triton X-100, and 2 mM dithiothreitol. Prepare compounds to 50× of the final desired highest inhibitor concentration by 100% DMSO and serial dilution in 3-fold for total of 10 concentrations. […] After assay for 60 min, 180 min, 60 min respectively at 28° C., reactions were terminated with stop solution (50 mM EDTA, 0.015% Brij-35, 0.2% Coating Reagent #3 and 100 mM HEPES (pH 7.5)). Collect conversion on Caliper EZ Reader. It is filed as protein-complex assay.

A further test deals with CDK2/Cyclin A2 (Homo sapiens, UniProt P24941). The test is described as §1. It is filed as protein-complex assay.

CDK4/Cyclin D3, sequence (P11802 whole entry, canonical isoform): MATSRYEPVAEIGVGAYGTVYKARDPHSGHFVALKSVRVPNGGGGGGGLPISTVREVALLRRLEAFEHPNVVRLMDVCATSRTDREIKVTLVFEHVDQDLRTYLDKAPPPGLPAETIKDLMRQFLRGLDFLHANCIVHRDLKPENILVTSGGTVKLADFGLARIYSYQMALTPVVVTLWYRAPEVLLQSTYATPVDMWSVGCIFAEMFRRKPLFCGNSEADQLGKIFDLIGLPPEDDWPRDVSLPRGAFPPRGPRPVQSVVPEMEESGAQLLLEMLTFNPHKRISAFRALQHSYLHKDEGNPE
CDK4/Cyclin D3, sequence (P30281 whole entry, canonical isoform): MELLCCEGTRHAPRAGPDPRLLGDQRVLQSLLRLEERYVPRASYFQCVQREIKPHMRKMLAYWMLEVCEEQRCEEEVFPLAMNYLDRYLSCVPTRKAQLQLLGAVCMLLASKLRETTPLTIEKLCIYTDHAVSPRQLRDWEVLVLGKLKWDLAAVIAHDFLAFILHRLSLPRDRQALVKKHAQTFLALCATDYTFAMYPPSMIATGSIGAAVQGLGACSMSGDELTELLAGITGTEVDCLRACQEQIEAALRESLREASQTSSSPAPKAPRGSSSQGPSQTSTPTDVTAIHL

The term IC50 denotes the concentration that inhibits the measured activity by half. Turning to `CC(=O)c1c(C)c2cnc(Nc3ccc(N4CC5CNCC(C4)C5(F)F)cn3)nc2n(C2CCCC2)c1=O`, on CDK4/Cyclin D3, the concentration for half-maximal inhibition (IC50) is less than 100 nM. Take `CC(=O)c1c(C)c2cnc(Nc3ccc4c(c3)OC[C@@H]3CNCCN43)nc2n(C2CCCC2)c1=O`: the IC50 at CDK2/Cyclin A2 is less than 10 nM.

In the case of `CC(=O)c1c(C)c2cnc(Nc3ccc4c(c3)OC[C@H]3CNCCN43)nc2n(C2CCCC2)c1=O`, the IC50 on CDK2/Cyclin A2 was less than 10 nM.

Source of the values: ChEMBL document CHEMBL5728935, “Heterocycles useful as anti-cancer agents” (2022).
